Test results published in article PMC10892041, “Vanadium Complexes with Thioanilide Derivatives of Amino Acids: Inhibition of Human Phosphatases and Specificity in Various Cell Models of Metabolic Disturbances” (Pharmaceuticals, 2024).
Blank lines part the entries; values can stand above or below the compound they belong to.

Experiments:
hepatocytes HepG2 [1] = test: Inhibition of hepatic gluconeogenesis (glucose synthesis); settings: known inhibitors of gluconeogenesis; concentration not given
LAR = target: T1, LAR (Homo sapiens, UniProt P10586); test: Inhibition of human recombinant tyrosine phosphatase LAR (DiFMUP fluorescence); assay type: biochemical; settings: for Inhibition of LAR, percentage of inhibition of the control: 1 µM, control solvent only, SD did not exceed 6%
T1 sequence (P10586 1352-1607 limits assumed): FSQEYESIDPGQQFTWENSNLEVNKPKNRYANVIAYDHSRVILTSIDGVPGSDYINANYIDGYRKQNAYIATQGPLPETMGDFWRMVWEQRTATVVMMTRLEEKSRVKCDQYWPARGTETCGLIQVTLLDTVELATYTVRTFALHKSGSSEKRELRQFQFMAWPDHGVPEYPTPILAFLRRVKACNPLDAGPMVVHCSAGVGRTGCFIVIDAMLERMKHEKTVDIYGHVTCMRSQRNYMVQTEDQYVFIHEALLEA
Procedure: (§1) To determine the ability of the tested compounds for inhibition tyrosine phosphatases, human recombinant proteins were used (Sigma-Aldrich). The reactions were performed in black opaque 384-well microplates (PerkinElmer, Waltham, MA, USA). An equal volume of phosphatase solution in a reaction buffer (25 mM of 3-(N-morpholino)propanesulfonic acid (MOPS), 50 mM NaCl, 1 mM dithiothreitol (DTT), and 0.05% Tween-20 (pH 7.0)) was added to the solution of the tested compound on microplate. These solutions were dispensed using an automated injector. The following final concentrations of the tested phosphatases were used: PTP1B 50 ng/mL, SHP1 400 ng/mL, SHP2 50 ng/mL, LAR 5 ng/mL, and PTPRA 100 ng/mL. After 10 min, a solution of phosphate 6,8-difluoro-4-methyl (DiFMUP; Thermo Fisher Scientific) was added until its final concentration was 0.1 mM. Samples were incubated for 20 miN at 23 °C, and then the measurements of fluorescence intensity (excitation 355 and emission […]) were performed on a multifunctional plate reader POLARstar Omega (BMG Labtech, Ortenberg, Germany). Assays were performed in triplicate. For the screening assays, the final concentration of the tested compounds was 1 µM. The results were expressed as percent inhibition of untreated control (enzyme with vehicle only) for the screening tests. […] IC50 were calculated using GraphPad Prism version 6.0 software (GraphPad Software, Boston, MA, USA).

SHP2 = target: T2, SHP2 (Homo sapiens, UniProt Q06124); test: Inhibition of human recombinant tyrosine phosphatase SHP2 (DiFMUP fluorescence); assay type: biochemical; settings: for Inhibition of SHP2, percentage of inhibition of the control: 1 µM, control solvent only, SD did not exceed 6%
T2 construct: purchased Sigma-Aldrich
T2 sequence (Q06124 1-593): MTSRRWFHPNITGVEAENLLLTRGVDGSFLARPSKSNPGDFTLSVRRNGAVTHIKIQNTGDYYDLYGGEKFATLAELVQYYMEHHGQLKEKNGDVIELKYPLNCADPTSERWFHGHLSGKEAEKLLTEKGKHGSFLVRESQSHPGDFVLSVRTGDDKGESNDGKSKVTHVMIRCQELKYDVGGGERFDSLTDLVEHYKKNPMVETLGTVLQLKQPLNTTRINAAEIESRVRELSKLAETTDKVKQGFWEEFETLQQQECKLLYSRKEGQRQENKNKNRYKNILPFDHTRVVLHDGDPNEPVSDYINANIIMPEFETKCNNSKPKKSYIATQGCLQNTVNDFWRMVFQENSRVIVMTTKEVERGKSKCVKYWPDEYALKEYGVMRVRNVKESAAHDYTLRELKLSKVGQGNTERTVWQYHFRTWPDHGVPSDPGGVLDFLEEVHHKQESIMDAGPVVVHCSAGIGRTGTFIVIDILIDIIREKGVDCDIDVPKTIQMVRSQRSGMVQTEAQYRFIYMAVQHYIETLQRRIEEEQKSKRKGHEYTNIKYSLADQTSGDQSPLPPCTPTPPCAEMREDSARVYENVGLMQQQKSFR
Procedure: as §1

SHP1 = target: T3, SHP1 (Homo sapiens, UniProt P29350); test: Inhibition of human recombinant tyrosine phosphatase SHP1 (DiFMUP fluorescence); assay type: biochemical; settings: for Inhibition of SHP1, percentage of inhibition of the control: 1 µM, control solvent only, SD did not exceed 6%
T3 construct: purchased Sigma-Aldrich
Procedure: as §1

myocytes C2C12 [2] = test: Viability of myocytes C2C12 after 24 h incubation (resazurin-based reagent); settings: 50 µM
Procedure: (§2) Simultaneously with glucose consumption tests, the viability of myocytes C2C12 was examined due to their prolonged 24 h incubation with vanadium complexes.
(§3) Prolonged incubation of the cells with vanadium complexes, as was the case during the study of the effect on glucose consumption, more closely corresponds to the actual conditions of clinical use, also allowing for the identification of possible cytotoxic effects. […] A Resazurin-based reagent is reduced proportionally to the metabolic activity of cells as a result of the transference of electrons from NADPH+H^+, the amount of which strictly depends on glucose metabolism.

PTP1B = target: T4, PTP1B (Homo sapiens, UniProt P18031); test: Inhibition of human recombinant tyrosine phosphatase PTP1B (DiFMUP fluorescence); assay type: biochemical; settings: for Inhibition of PTP1B, percentage of inhibition of the control: 1 µM, control solvent only, SD did not exceed 6%
T4 construct: purchased Sigma-Aldrich
T4 sequence (P18031 1-435): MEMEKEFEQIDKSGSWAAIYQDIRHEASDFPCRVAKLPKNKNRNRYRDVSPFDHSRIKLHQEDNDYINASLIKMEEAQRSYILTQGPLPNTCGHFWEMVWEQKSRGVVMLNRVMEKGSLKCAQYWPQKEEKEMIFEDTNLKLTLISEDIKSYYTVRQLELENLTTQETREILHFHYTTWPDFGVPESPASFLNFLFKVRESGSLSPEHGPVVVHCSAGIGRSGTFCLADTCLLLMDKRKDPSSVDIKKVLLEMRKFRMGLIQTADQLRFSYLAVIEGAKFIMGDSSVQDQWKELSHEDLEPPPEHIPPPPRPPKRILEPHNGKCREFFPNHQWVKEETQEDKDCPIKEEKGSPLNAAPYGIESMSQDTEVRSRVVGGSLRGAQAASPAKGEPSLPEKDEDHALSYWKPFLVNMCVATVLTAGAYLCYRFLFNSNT
Procedure: as §1

myocytes C2C12 [3] = test: Glucose consumption (utilization) by myocytes C2C12; assay type: cell-based, mouse; settings: 50 µM (highest tested concentration); 24 h
Procedure: The myocyte C2C12 cell line (ATCC CRL-1772), a subclone of myoblasts from mouse muscles, was cultured according to standard protocol in DMEM supplemented with 10% fetal calf serum, 100 IU/ml penicillin, and […] streptomycin at 37 °C in 5% CO2. Cells were pleated on a 96-well microplate and after reach confluence were differentiated in medium with 2% horse serum. Differentiation medium was changed every 72 h.
Differentiated myocytes C2C12 were used after 8 days of differentiation. The culture medium was changed for medium with 0.2% bovine serum albumin, 100 IU/mL penicillin, and 100 µg/mL streptomycin, and after 2 hours of incubation, the medium was changed to fresh medium containing the tested compounds. […]
Glucose concentration was determined based on enzymatic reaction with glucose oxidase and fluorometrically detection reaction end product using an AmplexRed Glucose/Glucose Oxidase Kit (Thermo Fisher Scientific) according to the manufacturer’s protocol. […] Fluorescence signal was measured at excitation of 530 nm and emission of 580 nm using a multimodal microplate reader POLARStar Omega (BMG Labtech), and glucose concentration in samples was calculated in MARS Data Analysis Software version 3.02.R2 (BMG Labtech) based on glucose standards. […] The final results were expressed as the percent of controls containing cells and solvent only.

myocytes C2C12 [4] = test system: myocytes C2C12; parameters: method as in doi:10.1016/j.poly.2020.114589; settings: 50 µM; previously published by the authors; cited from earlier work
hepatocytes HepG2 [5] = test: Transport of [14C]-deoxy-D-glucose into insulin-resistant hepatocytes (TNF or oleic acid); assay type: cell-based, human; settings: 10 µM; p ≤ 0.05
Procedure: After 24 h incubation, the tested complexes were added. After 2 h incubation at 37 °C in 5% CO2, the medium was changed to low-glucose medium (1000 mg/L), and the tested complexes were added again, with further incubation for 4 h being conducted.
For cells proceeded as above, 2-deoxy-D-[U-14C]-glucose (250–350 mCi/mmol, NEC720A, PerkinElmer) solution in KRB with a total activity of 0.03 mCi was added to each well. […] Non-specific radioactivity was subtracted from each result (cpm). Two independent experiments with triplicates were conducted.
Next, the compounds in fresh medium were added, further incubation was carried out for 24 h, and the scintillation proximity assay for the uptake of radiolabeled 2-deoxy-D-[U-14C]-glucose was conducted as described in the section above.

hepatocytes HepG2 [6] = settings: 50 µM
Procedure: Experiments on the inhibition of hepatic gluconeogenesis in HepG2 hepatocytes by the vanadium complexes were carried out based on a previous description with some modifications [143]. Hepatocytes HepG2 in culture medium (as indicated above) were seeded on a half-area 96 microplate at the amount of 50,000 per well. After 16–24 h, cells were washed with PBS three times and one time with experimental medium (DMEM without glucose with 0.1% BSA, 2 µM L-glutamine, 15 mM HEPES, 1 mM sodium pyruvate, 10 mM calcium lactate, 100 IU/mL penicillin, and 100 mg/mL streptomycin). Cells were incubated in this medium for 3 h at 37 °C in 5% CO2, and the next medium was changed to the experimental medium with additional gluconeogenesis inductors: 10 µM dexamethasone, 100 µM 8-bromoadenosine 3′,5′-cyclic monophosphate sodium salt (8-Br-cAMP), and 500 µM 3-isobutyl-1-methylxanthine (IBMX). After adding the test compounds, the cells were incubated for 3 h at 37 °C in a 5% CO2 microplate, and then the supernatant was collected for glucose assay (as described in Section 4.2.6). Glucose synthesis was calculated as glucose concentration differences between experimental medium without cells and medium with cells after incubation with the tested compound. The final results were expressed as the percent of inhibition of glucose synthesis by cells incubated with solvent only.

PP2A = PP2A (Homo sapiens, UniProt P67775); test: Inhibition of human recombinant non-tyrosine phosphatase PP2A (DiFMUP); assay type: biochemical
Procedure: (§4) For the inhibition assay of non-tyrosine phosphatases, human recombinant proteins were used (Sigma-Aldrich). The reactions were performed in black opaque 384-well microplates (PerkinElmer). To the solution of the tested complexes, an equal volume of a test solution of phosphatase was added. CDC25A were diluted in reaction buffer to the final concentration of 400 ng/mL as for tyrosine phosphatases (described in the section above), and PPA2 (final 0.5 U/mL) was diluted in 50 mM Tris-HCl, 0.05% Tween-20, and 125 µg/mL protease-free bovine serum albumin (pH 7.0). These solutions were dispensed using an automated injector. After 10 min, a solution of phosphate 6,8-difluoro-4-methyl (DiFMUP; Thermo Fisher Scientific) was added for the PPA2 sample until the final concentration 0.1 mM. For CDC25A samples, 3-O-methylfluorescein phosphate for the final concentration of 0.2 mM was added. Samples were incubated for 180 min at 23 °C, and then the measurements of fluorescence intensity (excitation 355 and emission 560 nm) were performed on a multifunctional plate reader POLARstar Omega (BMG Labtech). Assays were performed in triplicate. The results were expressed as percent of inhibition of untreated control (enzyme with vehicle solvent only).

CDC25A = target: T5, CDC25A (Homo sapiens, UniProt P30304); test: Inhibition of human recombinant non-tyrosine phosphatase CDC25A (3-O-methylfluorescein phosphate); assay type: biochemical
T5 construct: purchased Sigma-Aldrich
T5 sequence (P30304 1-524): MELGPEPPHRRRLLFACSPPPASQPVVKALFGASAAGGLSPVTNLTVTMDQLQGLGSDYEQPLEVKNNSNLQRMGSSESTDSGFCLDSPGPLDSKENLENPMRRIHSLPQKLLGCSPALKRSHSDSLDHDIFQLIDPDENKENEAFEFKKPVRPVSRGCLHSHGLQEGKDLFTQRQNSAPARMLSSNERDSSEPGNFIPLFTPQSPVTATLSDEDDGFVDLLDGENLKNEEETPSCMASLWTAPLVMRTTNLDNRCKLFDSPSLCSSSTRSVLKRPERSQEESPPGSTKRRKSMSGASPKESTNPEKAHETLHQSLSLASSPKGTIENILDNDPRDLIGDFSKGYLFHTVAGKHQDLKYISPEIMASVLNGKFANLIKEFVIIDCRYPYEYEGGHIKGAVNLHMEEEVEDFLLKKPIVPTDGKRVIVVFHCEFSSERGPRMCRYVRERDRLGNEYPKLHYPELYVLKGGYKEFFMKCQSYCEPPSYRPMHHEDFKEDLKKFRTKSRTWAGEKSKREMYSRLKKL
Procedure: as §4

[7] = Viability of myocytes C2C12 after 24 h incubation (resazurin-based reagent); settings: mouse, C2C12 myocytes
Procedure: as §2, §3

T3 sequence (P29350 whole entry): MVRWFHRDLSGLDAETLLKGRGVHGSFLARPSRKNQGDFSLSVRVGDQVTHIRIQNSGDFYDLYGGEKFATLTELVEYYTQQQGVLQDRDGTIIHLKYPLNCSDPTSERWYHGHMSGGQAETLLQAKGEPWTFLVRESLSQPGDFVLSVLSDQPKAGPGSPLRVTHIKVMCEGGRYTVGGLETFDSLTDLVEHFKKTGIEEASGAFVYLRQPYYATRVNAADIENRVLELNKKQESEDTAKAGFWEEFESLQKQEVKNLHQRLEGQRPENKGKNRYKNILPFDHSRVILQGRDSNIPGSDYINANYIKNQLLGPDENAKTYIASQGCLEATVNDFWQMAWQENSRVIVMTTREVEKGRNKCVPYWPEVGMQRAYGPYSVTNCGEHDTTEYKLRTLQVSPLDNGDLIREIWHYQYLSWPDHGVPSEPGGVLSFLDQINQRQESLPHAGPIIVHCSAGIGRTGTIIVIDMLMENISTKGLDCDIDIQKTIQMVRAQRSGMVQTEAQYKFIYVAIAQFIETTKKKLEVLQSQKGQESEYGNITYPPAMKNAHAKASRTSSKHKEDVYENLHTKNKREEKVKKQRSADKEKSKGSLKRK
Chain of PP2A (P67775 whole entry): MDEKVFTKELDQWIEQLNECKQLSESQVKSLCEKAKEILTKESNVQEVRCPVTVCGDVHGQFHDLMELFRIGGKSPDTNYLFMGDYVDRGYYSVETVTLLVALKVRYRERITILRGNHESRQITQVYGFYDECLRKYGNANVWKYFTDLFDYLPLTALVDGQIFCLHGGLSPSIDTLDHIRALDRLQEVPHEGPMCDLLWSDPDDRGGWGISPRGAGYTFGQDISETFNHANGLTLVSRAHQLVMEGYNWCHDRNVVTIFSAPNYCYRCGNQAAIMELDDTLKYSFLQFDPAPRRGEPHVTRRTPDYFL

Compound: NC(=O)c1ncn([C@@H]2O[C@H](CO)[C@@H](O)[C@H]2O)c1N [AICAR, 5-aminoimidazole-4-carboxamide riboside]
Inhibition of glucose synthesis by hepatocytes, experimental control compounds (hepatocytes HepG2 [1]): showed inhibition of glucose synthesis

Compound: CN(CCOc1ccc(CC2SC(=O)NC2=O)cc1)c1ccccn1 (stereo not shown) [rosiglitazone, reference compound]
viability at 24 h, 50 µM [7]: 120 ± 7%

Second part, led by results:

Inhibition of LAR, percentage of inhibition of the control (LAR): 18%
Inhibition of SHP2, percentage of inhibition of the control (SHP2): 57%
Inhibition of SHP1, percentage of inhibition of the control (SHP1): 56%
Inhibition of PTP1B, percentage of inhibition of the control (PTP1B): 24%
Compound: COc1ccc(C(=O)NN=Cc2cc(Br)ccc2[O][V]2[O]C(c3ccc(OC)cc3)=NN=Cc3cc(Br)ccc3[O]2)cc1 [VC055, [V(L11)(HL11)]]
Cell viability of myocytes C2C12, % of the control (myocytes C2C12 [2]): 127 ± 5%
Glucose consumption by myocytes C2C12, % of the control (myocytes C2C12 [3]): No statistically significant effect

Inhibition of LAR, percentage of inhibition of the control (LAR): 39%
Inhibition of SHP2, percentage of inhibition of the control (SHP2): 74%
Inhibition of SHP1, percentage of inhibition of the control (SHP1): 70%
Inhibition of PTP1B, percentage of inhibition of the control (PTP1B): 42%
Compound: O=C(NN=Cc1cc(Br)ccc1[O][V]1[O]C(c2cc3ccccc3cc2O)=NN=Cc2cc(Br)ccc2[O]1)c1cc2ccccc2cc1O [VC067, [V(L12)(HL12)]]
Transport of [14C]-deoxy-D-glucose into C2C12 myocytes, % of the control (myocytes C2C12 [4]): 199 ± 3 % of control
Reversal of decreased [14C]-deoxy-D-glucose transport, insulin resistance induced by oleic acid (hepatocytes HepG2 [5]): reversed the decrease

IC50 (LAR): 619 nM
Inhibition of LAR, percentage of inhibition of the control (LAR): 33%
IC50 (SHP2): 235 nM
Inhibition of SHP2, percentage of inhibition of the control (SHP2): 74%
IC50 (SHP1): 517 nM
Inhibition of SHP1, percentage of inhibition of the control (SHP1): 70%
Log IC50 ± SD SHP1 (SHP1; logarithm of IC50): −6.29 ± 0.02
Inhibition of glucose synthesis (gluconeogenesis) in hepatocytes (hepatocytes HepG2 [6]): 79 ± 18%
Inhibition of PTP1B, percentage of inhibition of the control (PTP1B): 40%
Log IC50 ± SD PTP1B (PTP1B; logarithm of IC50): −5.69 ± 0.02
IC50 (PTP1B; read-out: IC50 PTP1B): 2030 nM
Inhibition of PP2A, percentage inhibition of control ± SD (PP2A; 1 µM): 26 ± 12%
Inhibition of PP2A, percentage inhibition of control ± SD (PP2A; 10 µM): 55 ± 15%
Inhibition of CDC25A, percentage inhibition of control ± SD (CDC25A; 1 µM): 54 ± 3%
Inhibition of CDC25A, percentage inhibition of control ± SD (CDC25A; 10 µM): 62 ± 2%
Compound: O=C(NN=Cc1cc(Br)ccc1[O-])c1ccc([N+](=O)[O-])cc1.O=[N+]([O-])c1ccc(C([O-])=NN=Cc2cc(Br)ccc2[O-])cc1.[V+3] [VC068, [V(L13)(HL13)]]
Transport of [14C]-deoxy-D-glucose into C2C12 myocytes, % of the control (myocytes C2C12 [4]): 218 ± 10 % of control
Reversal of decreased [14C]-deoxy-D-glucose transport, insulin resistance induced by TNF (hepatocytes HepG2 [5]): reversed the decrease
